Results from PMC11883961 (RSC Chemical Biology, 2025).

Assays:
[1] = target: FKBP12-LgBiT and MAPRE1 (N183-Y268)-SmBiT in HEK293T cells (Homo sapiens, UniProt P62942+Q15691); assay: NanoBiT FKBP12-MAPRE1 recruitment experiments; format: cell-based
[2] = target: FKBP12 ligand pocket (FKBP12-LgBiT/MAPRE1-SmBiT in HEK293T cells) (Homo sapiens, UniProt P62942+Q15691); assay: NanoBiT FKBP ligand competition experiments; format: cell-based; details: 80 μM competitor; recruiters up to 20 μM
Chain of FKBP12 ligand pocket (FKBP12-LgBiT/MAPRE1-SmBiT in HEK293T cells) (P62942 whole entry): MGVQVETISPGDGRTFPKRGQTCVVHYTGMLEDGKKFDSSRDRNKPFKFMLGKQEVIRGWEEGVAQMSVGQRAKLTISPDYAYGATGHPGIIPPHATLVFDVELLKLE
Chain of FKBP12 ligand pocket (FKBP12-LgBiT/MAPRE1-SmBiT in HEK293T cells) (Q15691 183-268): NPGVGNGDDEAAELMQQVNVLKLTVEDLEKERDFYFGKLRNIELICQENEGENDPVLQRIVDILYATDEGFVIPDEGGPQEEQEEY

Chain of FKBP12-LgBiT and MAPRE1 (N183-Y268)-SmBiT in HEK293T cells (P62942 whole entry): as the sequence (P62942 whole entry) above
Chain of FKBP12-LgBiT and MAPRE1 (N183-Y268)-SmBiT in HEK293T cells (Q15691 183-268): as the sequence (Q15691 183-268) above

With CO[C@H]1C[C@@H]2CC[C@@H](C)[C@@](O)(O2)C(=O)C(=O)N2CCCC[C@H]2C(=O)O[C@H]([C@H](C)C[C@@H]2CC[C@@H](O)[C@H](OC)C2)CC(=O)[C@H](C)/C=C(\C)[C@@H](O)[C@@H](OC)C(=O)[C@H](C)C[C@H](C)/C=C/C=C/C=C/1C [Rapamycin] the “recruitment of MAPRE1 to FKBP12 in cells” value [1] was “neither of which measurably recruits MAPRE1 to FKBP12” and the “ability to outcompete glue recruiters for FKBP12” value [2] was “able to outcompete even the highest dose of all glue recruiters tested”.
